Patent US20180282281A1, “IMMUNOREGULATORY AGENTS” (FLEXUS BIOSCIENCES, INC., priority 2014, published 2018)
pIC50: −log10 of the molar value.

molecular target: T1, human IDO1 (Homo sapiens, UniProt P14902); experiment: HEK293 human IDO1 cell-based IDO inhibition assay; conditions: read-out: HEK Human IDO-1 Potency
T1 construct: expressed in transfected cells
Method: 1HEK293 cells were transfected with a pCDNA-based mammalian expression vector harboring human IDO1 cDNA (NM 002164.2) by electroporation. They were cultured in medium (DMEM with 10% FBS) containing 1 mg/ml G418 for two weeks. Clones of HEK293 cells that stably expressed human IDO1 protein were selected and expanded for IDO inhibition assay.
The human IDOL/HEK293 cells were seeded at 10,000 cells per 50 μL per well with RPMI/phenol red free media contains 10% FBS in a 384-well black wall clear bottom tissue culture plate (Matrix Technologies LLC) 100 nL of certain concentration of compound was then added to each well using ECHO liquid handling systems. The cells were incubated for 20 hours in 37° C. incubator with 5% CO2.
The compound treatments were stopped by adding Trichloroacetic Acid (Sigma-Aldrich) to a final concentration at 0.2%. The cell plate was further incubated at 50° C. for 30 minute. The equal volume supernatant (20 μL) and 0.2% (w/v) Ehrlich reagent (4-dimethylaminobenzaldehyde, Sigma-Aldrich) in glacial acetic acid were mixed in a new clear bottom 384-well plate. This plate was then incubated at room temperature for 30 minute. The absorbance at 490 nm was measured on Envision plate reader.

T1 sequence (P14902 whole entry): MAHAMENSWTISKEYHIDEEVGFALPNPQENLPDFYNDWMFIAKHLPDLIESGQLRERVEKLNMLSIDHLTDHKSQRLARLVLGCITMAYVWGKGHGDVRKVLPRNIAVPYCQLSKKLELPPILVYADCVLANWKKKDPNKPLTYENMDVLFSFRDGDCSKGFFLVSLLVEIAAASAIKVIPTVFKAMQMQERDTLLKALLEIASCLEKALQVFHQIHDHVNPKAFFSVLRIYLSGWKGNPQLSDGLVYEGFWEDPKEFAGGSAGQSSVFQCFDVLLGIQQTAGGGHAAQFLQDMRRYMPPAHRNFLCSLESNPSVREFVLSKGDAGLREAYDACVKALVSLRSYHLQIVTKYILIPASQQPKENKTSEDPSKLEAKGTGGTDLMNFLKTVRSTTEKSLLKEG

Compared with `Cc1cc(F)ccc1NC(=O)[C@H](C)[C@H]1CC[C@@H](c2ccnc3ccc(F)cc32)CC1` [Example 59, (R)-N-(4-fluoro-2-methylphenyl)-2-((cis)-4-(6-fluoroquinolin-4-yl)cyclohexyl)propanamide], `Cc1cc(Cl)ccc1NC(=O)[C@H](C)[C@H]1CC[C@@H](c2ccnc3ccc(F)cc32)CC1` [Example 64, (R)-N-(4-chloro-2-methylphenyl)-2-((cis)-4-(6-fluoroquinolin-4-yl)cyclohexyl)propanamide] is higher in pIC50: < 6.60 for the first, > 6.60 for the second.

`C[C@@H](C(=O)Nc1ccc(C(F)(F)F)cc1)[C@H]1CC[C@@H](c2ccnc3ccc(F)cc32)CC1` [Example 60, (R)-2-((cis)-4-(6-fluoroquinolin-4-yl)cyclohexyl)-N-(4-(trifluoromethyl)phenyl)propanamide] and `C[C@@H](C(=O)Nc1cccc(C(F)(F)F)c1)[C@H]1CC[C@@H](c2ccnc3ccc(F)cc32)CC1` [Example 70, (R)-2-((cis)-4-(6-fluoroquinolin-4-yl)cyclohexyl)-N-(3-(trifluoromethyl)phenyl)propanamide] cannot be ordered by pIC50: > 7.30 for the first, > 7.30 for the second.

`C[C@@H](C(=O)Nc1ccc2c(c1)OC(F)(F)O2)[C@H]1CC[C@@H](c2ccnc3ccc(F)cc32)CC1` [Example 61, (R)-N-(2,2-difluorobenzo[d][1,3]dioxol-5-yl)-2-((cis)-4-(6-fluoroquinolin-4-yl)cyclohexyl)propanamide] and `C[C@@H](C(=O)Nc1ccc(Cl)c(Cl)c1)[C@H]1CC[C@@H](c2ccnc3ccc(F)cc32)CC1` [Example 66, (R)-N-(3,4-dichlorophenyl)-2-((cis)-4-(6-fluoroquinolin-4-yl)cyclohexyl)propanamide] cannot be ordered by pIC50: > 7.30 for the first, > 7.30 for the second.

`CCOc1ccccc1NC(=O)[C@H](C)[C@H]1CC[C@@H](c2ccnc3ccc(F)cc32)CC1` [Example 62, (R)-N-(2-ethoxyphenyl)-2-((cis)-4-(6-fluoroquinolin-4-yl)cyclohexyl)propanamide] and `C[C@@H](C(=O)Nc1ccccc1F)[C@H]1CC[C@@H](c2ccnc3ccc(F)cc32)CC1` [Example 77, (R)-N-(2-fluorophenyl)-2-((cis)-4-(6-fluoroquinolin-4-yl)cyclohexyl)propanamide] cannot be ordered by pIC50: > 6.60 for the first, > 7.30 for the second.

`C[C@@H](C(=O)Nc1cccc(Cl)c1)[C@H]1CC[C@@H](c2ccnc3ccc(F)cc32)CC1` [Example 65, (R)-N-(3-chloropehnyl)-2-((cis)-4-(6-fluoroqinolin-4-yl)cyclohexyl)propanamide] and `Cc1cccc(NC(=O)[C@H](C)[C@H]2CC[C@@H](c3ccnc4ccc(F)cc43)CC2)c1` [Example 72, (R)-2-((cis)-4-(6-fluoroquinolin-4-yl)cyclohexyl)-N-(m-tolyl)propanamide] cannot be ordered by pIC50: > 7.30 for the first, > 7.30 for the second.

`COC(=O)c1cccc(NC(=O)[C@H](C)[C@H]2CC[C@@H](c3ccnc4ccc(F)cc43)CC2)c1` [Example 67, methyl 3-((R)-2-((cis)-4-(6-fluoroquinolin-4-yl)cyclohexyl)propanamido)benzoate] and `COC(=O)c1ccc(NC(=O)[C@H](C)[C@H]2CC[C@@H](c3ccnc4ccc(F)cc43)CC2)cc1` [Example 68, methyl 4-((R)-2-((cis)-4-(6-fluoroquinolin-4-yl)cyclohexyl)propanamido)benzoate] cannot be ordered by pIC50: > 7.30 for the first, > 7.30 for the second.

Going from `C[C@@H](C(=O)N(C)c1ccccc1)[C@H]1CC[C@@H](c2ccnc3ccc(F)cc32)CC1` [Example 69, (R)-2-((cis)-4-(6-fluoroquinolin-4-yl)cyclohexyl)-N-methyl-N-phenylpropanamide] to `C[C@@H](C(=O)Nc1ccncc1)[C@H]1CC[C@@H](c2ccnc3ccc(F)cc32)CC1` [Example 74, (R)-2-((cis)-4-(6-fluoroquinolin-4-yl)cyclohexyl)-N-(pyridin-4-yl)propanamide], the pIC50 rises from < 6.60 to > 7.30.

`C[C@@H](C(=O)Nc1ccc(Oc2ccccc2)cc1)[C@H]1CC[C@@H](c2ccnc3ccc(F)cc32)CC1` [Example 71, (R)-2-((cis)-4-(6-fluoroquinolin-4-yl)cyclohexyl)-N-(4-phenoxyphenyl)propanamide] and `C[C@@H](C(=O)Nc1cccc(Oc2ccccc2)c1)[C@H]1CC[C@@H](c2ccnc3ccc(F)cc32)CC1` [Example 73, (R)-2-((cis)-4-(6-fluoroquinolin-4-yl)cyclohexyl)-N-(3-phenoxyphenyl)propanamide] cannot be ordered by pIC50: > 7.30 for the first, > 6.60 for the second.

First: C[C@@H](C(=O)Nc1ccccc1Oc1ccccc1)[C@H]1CC[C@@H](c2ccnc3ccc(F)cc32)CC1 [Example 73a, (R)-2-((cis)-4-(6-fluoroquinolin-4-yl)cyclohexyl)-N-(2-phenoxyphenyl)propanamide]
Second: CCOc1ccc(NC(=O)[C@H](C)[C@H]2CC[C@@H](c3ccnc4ccc(F)cc43)CC2)cc1 [Example 78, (R)-N-(4-ethoxyphenyl)-2-((cis)-4-(6-fluoroquinolin-4-yl)cyclohexyl)propanamide]
The pIC50 of the first is lower: < 6.60 for the first, > 7.30 for the second.

`C[C@@H](C(=O)Nc1nccs1)[C@H]1CC[C@@H](c2ccnc3ccc(F)cc32)CC1` [Example 75, (R)-2-((cis)-4-(6-fluoroquinolin-4-yl)cyclohexyl)-N-(thiazol-2-yl)propanamide] and `C[C@@H](C(=O)Nc1cccnc1)[C@H]1CC[C@@H](c2ccnc3ccc(F)cc32)CC1` [Example 76, (R)-2-((cis)-4-(6-fluoroquinolin-4-yl)cyclohexyl)-N-(pyridin-3-yl)propanamide] cannot be ordered by pIC50: > 6.60 for the first, > 7.30 for the second.

`C[C@@H](C(=O)Nc1cccc(C#N)c1)[C@H]1CC[C@@H](c2ccnc3ccc(F)cc32)CC1` [Example 79, (R)-N-(3-cyanophenyl)-2-((cis)-4-(6-fluoroquinolin-4-yl)cyclohexyl)propanamide] and `Cc1ccc(NC(=O)[C@H](C)[C@H]2CC[C@@H](c3ccnc4ccc(F)cc43)CC2)cc1Cl` [Example 80, (R)-N-(3-chloro-4-methylphenyl)-2-((cis)-4-(6-fluoroquinolin-4-yl)cyclohexyl)propanamide] cannot be ordered by pIC50: > 6.60 for the first, > 7.30 for the second.

`C[C@@H](C(=O)Nc1ccc(C(F)(F)F)c(C#N)c1)[C@H]1CC[C@@H](c2ccnc3ccc(F)cc32)CC1` [Example 82, (R)—N-(3-Cyano-4-(trifluoromethyl)phenyl)-2-((cis)-4-(6-fluoroquinolin-4-yl)cyclohexyl)propanamide] and `CCC(C(=O)Nc1ccc(Cl)cc1)[C@H]1CC[C@H](Oc2ccnc3c(C(F)(F)F)cccc23)CC1` (stereo partly drawn) [Example 86, N-(4-Chlorophenyl)-2-((trans)-4-((8-(trifluoromethyl)quinolin-4-yl)oxy)cyclohexyl)butanamide] cannot be ordered by pIC50: > 6.60 for the first, > 7.30 for the second.

Going from `O=C(CN1CCC(Oc2ccc3nccc(Cl)c3c2)CC1)Nc1ccc(Cl)cc1` [Example 90, N-(4-Chlorophenyl)-2-(4-((4-chloroquinolin-6-yl)oxy)piperidin-1-yl)acetamide] to `O=C(CN1CCC(Oc2ccnc3ccc(F)cc23)CC1)Nc1ccc(Cl)cc1` [Example 95, N-(4-Chlorophenyl)-2-(4-((6-fluoroquinolin-4-yl)oxy)piperidin-1-yl)acetamide], the pIC50 rises from < 6.60 to > 6.60.

`O=C(CC1CCN(Cc2ccnc3ccccc23)CC1)Nc1ccc(Cl)cc1` [Example 113, N-(4-Chlorophenyl)-2-(1-(quinolin-4-ylmethyl)piperidin-4-yl)acetamide] and `O=C(CC1CCN(Cc2ccnc3ccccc23)CC1)Nc1ccc(F)cc1` [Example 114, N-(4-Fluorophenyl)-2-(1-(quinolin-4-ylmethyl)piperidin-4-yl)acetamide] cannot be ordered by pIC50: > 7.30 for the first, > 6.60 for the second.
